Source: patent publication US20120093822A1, “DOPAMINE D2 RECEPTOR-DISC1 INTERACTION, COMPOSITIONS AND METHODS FOR MODULATING SAME” (Centre Forr Addiction And Mental Health, priority 2009, published 2012)
“Also recorded” adds a separate entry of the source. Read-outs that look alike come from different tables or passages of the source. Where no end group is shown, it is not given here.

How the values were obtained:
[1] = 100 Russian patients with schizophrenia; cited from earlier work
D2-DISC1 interaction = assay: Apomorphine-induced disruption of pre-pulse inhibition (PPI) of the acoustic startle reflex in rats; type: in vivo, rat; conditions: for Effect on apomorphine-induced disruption of PPI: apomorphine 0.3 mg/kg SC, peptide ICV (1 mM, 4 μl; 40 nmol), n=5 per group
D2-DISC1 interaction, sequence (P61169 whole entry, one chain of several): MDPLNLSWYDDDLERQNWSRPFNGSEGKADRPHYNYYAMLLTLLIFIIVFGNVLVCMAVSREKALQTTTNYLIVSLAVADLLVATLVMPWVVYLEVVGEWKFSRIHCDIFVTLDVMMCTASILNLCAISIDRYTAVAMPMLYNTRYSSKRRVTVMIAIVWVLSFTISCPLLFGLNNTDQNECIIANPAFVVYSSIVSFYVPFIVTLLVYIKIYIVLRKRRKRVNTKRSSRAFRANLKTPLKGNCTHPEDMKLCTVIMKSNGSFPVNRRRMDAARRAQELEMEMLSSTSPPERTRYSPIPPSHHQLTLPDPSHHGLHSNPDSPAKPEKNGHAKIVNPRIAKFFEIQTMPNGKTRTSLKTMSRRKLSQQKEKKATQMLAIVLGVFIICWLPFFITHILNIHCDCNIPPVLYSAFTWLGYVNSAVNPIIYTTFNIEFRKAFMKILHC
From the text: PPI of the acoustic startle reflex is a sensorimotor gating process known to be deficient in a number of neurologic and psychiatric conditions including, but not limited to schizophrenia, Huntington's disease, Tourette's syndrome, and obsessive compulsive disorder (OCD).

GSK-3α/β phosphorylation = assay: Western blot of phosphorylated GSK-3α/β (Ser-21/9) in transfected HEK-293T cells; type: cell-based
Protocol: (A) Western blot analysis of phosphorylated GSK-3α/β levels in extract prepared from transfected HEK293T cells in the presence or absence of DA. Alpha-tubulin was used as loading controls. (B) Densitometric analysis. Data are analyzed by t-test. (C) Cyclic AMP analysis in transfected HEK293T cells in the presence or absence of Foskolin and Quinpirole. Data are analyzed by one-way ANOVA. Data are means±SEM. Numbers of samples per group (n) are indicated. CTRL: Control; DA: Dopamine.
Alpha-tubulin was used as loading controls. CTRL: Control; DA: Dopamine.
Currently, all studies related to D2R-mediated Akt/GSK-3 signaling were carried out in brain tissue, where the expression of D2R and DISC1 was confirmed (11,89,99). At least to our knowledge, there are no studies of D2R-mediated Akt/GSK-3 signaling in HEK-293T cells. Furthermore, there is no evidence indicating the existence of endogenous DISC1 in HEK-293T cells. […] The intensity of phosphor-GSK-3α Ser-21 and […] binding was quantified by densitometry (software: AIS Imaging Research Inc) (FIG. 1B). […] acted as a loading control in this experiment. […]

D2R = D2R (Homo sapiens, UniProt P14416); conditions: cited from earlier work
D2R, sequence (P14416 whole entry, the tested form may be a part): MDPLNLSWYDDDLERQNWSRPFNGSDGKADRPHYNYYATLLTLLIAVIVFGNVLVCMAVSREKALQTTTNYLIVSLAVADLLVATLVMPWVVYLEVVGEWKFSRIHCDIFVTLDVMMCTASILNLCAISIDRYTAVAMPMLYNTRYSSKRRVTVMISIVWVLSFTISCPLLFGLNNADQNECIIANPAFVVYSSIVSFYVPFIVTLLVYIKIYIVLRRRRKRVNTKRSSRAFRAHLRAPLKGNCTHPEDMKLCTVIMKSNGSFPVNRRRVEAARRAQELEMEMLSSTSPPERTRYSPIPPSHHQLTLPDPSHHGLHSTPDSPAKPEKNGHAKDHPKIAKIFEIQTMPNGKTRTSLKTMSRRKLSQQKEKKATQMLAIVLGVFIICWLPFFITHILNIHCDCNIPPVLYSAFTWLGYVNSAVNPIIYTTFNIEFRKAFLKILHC

DISC1 = molecular target: T1, DISC1 (Rattus norvegicus, UniProt Q810H6); assay: Affinity purification (pull-down) of DISC1 from solubilized striatal tissue by GST fusion proteins of D2R fragments; type: binding; conditions: GST fusion protein
T1 construct: from tissue; host or cells: rat striatum, solubilized
T1 sequence (Q810H6 1-846): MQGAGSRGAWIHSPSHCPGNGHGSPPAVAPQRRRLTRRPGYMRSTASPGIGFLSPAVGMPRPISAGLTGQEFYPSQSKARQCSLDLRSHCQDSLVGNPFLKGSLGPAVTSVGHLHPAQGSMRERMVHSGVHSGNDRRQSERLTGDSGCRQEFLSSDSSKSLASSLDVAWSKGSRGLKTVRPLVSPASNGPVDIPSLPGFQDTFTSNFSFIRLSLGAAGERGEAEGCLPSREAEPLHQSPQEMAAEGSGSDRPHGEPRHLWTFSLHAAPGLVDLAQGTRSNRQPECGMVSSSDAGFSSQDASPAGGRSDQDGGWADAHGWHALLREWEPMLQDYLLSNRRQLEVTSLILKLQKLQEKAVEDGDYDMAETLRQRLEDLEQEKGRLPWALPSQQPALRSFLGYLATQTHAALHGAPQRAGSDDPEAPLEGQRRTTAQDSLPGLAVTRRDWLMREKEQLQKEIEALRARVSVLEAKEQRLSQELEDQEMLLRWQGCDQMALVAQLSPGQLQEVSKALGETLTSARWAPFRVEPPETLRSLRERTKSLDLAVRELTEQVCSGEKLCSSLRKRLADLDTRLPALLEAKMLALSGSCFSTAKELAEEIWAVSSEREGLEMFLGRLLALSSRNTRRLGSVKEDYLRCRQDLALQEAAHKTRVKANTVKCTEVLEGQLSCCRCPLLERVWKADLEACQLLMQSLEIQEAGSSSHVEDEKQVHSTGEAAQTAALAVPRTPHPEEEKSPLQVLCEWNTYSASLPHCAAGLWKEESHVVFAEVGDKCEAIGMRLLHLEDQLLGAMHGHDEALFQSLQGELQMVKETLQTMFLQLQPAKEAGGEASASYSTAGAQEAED
From the text: (A) Co-immunoprecipitation of DISC1 by D2 antibody in rat striatal tissue.
This method uses GST fusion proteins encoding the fragments of a test protein to affinity purify other proteins that may form complexes with the test protein in tissue from a specific brain region. Since DISC1 is an intracellular protein, we made GST-fusion proteins encoding two intracellular regions of D2R: the carboxyl tail (CT) of D2R (D2CT: T428-C443) and the third intracellular loop ([…]) of D2R (D2IL3: K211-Q373). Many dopamine receptor interacting proteins have been identified that interact with either the CT or the IL3 region of dopamine receptors (94). […] GST fusion proteins encoding these two fragments were made and used in the affinity purification experiment. […] Thus, we concluded that D2IL3-1-1 (SEQ ID NO:1) comprises the site for D2-DISC1 interaction.

DISC1NT = assay: In vitro binding assay with [35S]-DISC1NT probe; conditions: glutathione beads with GST-fusion protein, autoradiography
DISC1NT, sequence (Q9NRI5 1-75 limits assumed): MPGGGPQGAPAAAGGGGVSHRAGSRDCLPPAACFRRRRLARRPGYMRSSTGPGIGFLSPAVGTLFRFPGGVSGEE
Protocol: (§1) To construct GST-fusion proteins encoding truncated D2113, cDNA fragments were amplified by PCR with specific primers. All 5′ and 3′ oligonucleotides incorporated BamH1 site (GGATCC) and Xho1 sites (CTCGAG), respectively, to facilitate subcloning into vector pGEX-4T3 (for GST-fusion protein construction). GST-fusion proteins were prepared from bacterial lysates as described by the manufacturer (Amersham). To confirm appropriate splice fusion and the absence of spurious PCR generated nucleotide errors, all constructs were resequenced. For in vitro binding assays, the probes were made with DISC1-NT or DISC1-CT subcloned into mammalian expression vector pCDNA3 using TNT® T7 Quick Coupled Transcription/Translation System (Promega, Madison, Wis.) and [35S] methionine (PerkinElmer, Waltham, Mass.). Glutathione beads carrying 20 μg GST-fusion proteins of D2IL3 or GST alone were incubated at room temperature for 1 hour with [35S] methionine-labeled […] probe, respectively. The beads were then washed six times with PBS containing 0.1-0.5% (V/V) Triton X-100 and eluted with 10 mM glutathione elution buffer. Eluates were separated by SDS-PAGE and visualized by autoradiography using BioMax (Kodak) film.

DISC1CT = assay: In vitro binding assay with [35S]-DISC1CT probe; conditions: glutathione beads with GST-fusion protein, autoradiography
Protocol: as §1

[2] = molecular target: T2, Disrupted-in-schizophrenia-1 (DISC1), endogenous, in solubilized rat striatal tissue (rat, UniProt Q810H6 1-846, limits assumed); assay: co-immunoprecipitation from rat striatal tissue with D1R antibody (data not shown)
T2 construct: Endogenous protein in a tissue extract
T2 sequence (looked up): T1 sequence (Q810H6 1-846)

For N[C@@]1(C(=O)O)CS(=O)(=O)[C@H]2[C@H](C(=O)O)[C@H]21 [LY404,039], the “Clinical effectiveness in schizophrenia” value [1] is listed as “significantly effective”.

In the case of CN1CCc2cccc3c2[C@H]1Cc1ccc(O)c(O)c1-3 [apomorphine], the “Effect on PPI in comparison with saline/vehicle” value (D2-DISC1 interaction; rat, in vivo) is reported as “reduced levels of PPI at all 3 prepulse intensities; also recorded: significantly disrupted PPI”.

For NCCc1ccc(O)c(O)c1 [dopamine], the “Phosphorylation of GSK3α/β” value (GSK-3α/β phosphorylation; HEK-293T cells co-expressing D2R and DISC1, 10 μM dopamine, 30 min) was “significantly decreased” and the “Phosphorylation of GSK3α/β” value (GSK-3α/β phosphorylation; HEK-293T cells expressing D2R with pcDNA3, dopamine) was “failed to alter”.

For OCCOCCN1CCN(C2=Nc3ccccc3Sc3ccccc32)CC1 [quetiapine], the “Antagonism of β-arrestin 2 recruitment to D2R” value (from here on “Antagonism”) (D2R; induced by activation of D2R) is given as “potently antagonize”.

In the case of Cc1nc2n(c(=O)c1CCN1CCC(c3noc4cc(F)ccc34)CC1)CCCC2 [risperidone], the “Antagonism” value (D2R) is listed as “potently antagonize”.

In the case of O=C1Cc2cc(CCN3CCN(c4nsc5ccccc45)CC3)c(Cl)cc2N1 [ziprasidone], the “Antagonism” value (D2R; induced by activation of D2R) is listed as “potently antagonize”.

In the case of “GST-D2CT: GST-fusion protein of the carboxyl tail of D2R (D2CT: T428-C443) (TFNIEFRKAFLKILHC; also: GST fusion; UniProt P14416 428-443, looked up, fragment)”, the “Pull-down (precipitation) of DISC1” value (DISC1) is reported as “not”.

In the case of “GST-D2IL3-1-1: GST fusion of D2IL3-1-1: K211-T225, KIYIVLRRRRKRVNT (SEQ ID NO:1) (also: GST fusion; UniProt P14416 211-225, looked up, fragment)”, the “Binding of [35S]-DISC1NT probe” value (DISC1NT) is reported as “bound”, the “Binding of [35S]-DISC1CT probe” value (DISC1CT) is reported as “not” and the “Pull-down (precipitation) of DISC1” value (DISC1) is reported as “Affinity pull-down of the DISC1; also recorded: recognizes and precipitates DISC1”.

With “GST-D2IL3-1-2: GST fusion of D2IL3-1-2: K226-L240 (KRSSRAFRAHLRAPL; also: GST fusion; UniProt P14416 226-240, looked up, fragment)” the “Pull-down (precipitation) of DISC1” value (DISC1) was “failed to”.

For “GST-D2IL3-1: GST fusion protein of D2IL3-1: K211-V270 (KIYIVLRRRRKRVNTKRSSRAFRAHLRAPLKGNCTHPEDMKLCTVIMKSNGSFPVNRRRV; cysteine pairing not given here; also: GST fusion; UniProt P14416 211-270, looked up, fragment)”, the “Pull-down (precipitation) of DISC1” value (DISC1) was “Affinity pull-down of the DISC1; also recorded: recognizes and precipitates DISC1”.

In the case of “TAT-D2pep-sc: scrambled peptide YGRKKRRQRRRVLRKTRIRRYKIRNV (SEQ ID NO:3) (TAT-D2 scrambled fusion protein)”, the “Effect on apomorphine-induced disruption of PPI” value (D2-DISC1 interaction; rats) is reported as “did not affect the response to apomorphine”, the “Effect on apomorphine-induced disruption of PPI” value (D2-DISC1 interaction; rats, listed as TAT-D2pep-scramb) is reported as “no effect” and the “Effect on basal PPI (degree of PPI without apomorphine)” value (D2-DISC1 interaction; rats, peptide ICV) is reported as “did not affect”.

B1: Dopamine D1 receptor (D1R), endogenous, in rat striatal tissue (receptor, UniProt P18901 1-446, looked up)
chain: MAPNTSTMDEAGLPAERDFSFRILTACFLSLLILSTLLGNTLVCAAVIRFRHLRSKVTNFFVISLAVSDLLVAVLVMPWKAVAEIAGFWPLGPFCNIWVAFDIMCSTASILNLCVISVDRYWAISSPFQYERKMTPKAAFILISVAWTLSVLISFIPVQLSWHKAKPTWPLDGNFTSLEDTEDDNCDTRLSRTYAISSSLISFYIPVAIMIVTYTSIYRIAQKQIRRISALERAAVHAKNCQTTAGNGNPVECAQSESSFKMSFKRETKVLKTLSVIMGVFVCCWLPFFISNCMVPFCGSEETQPFCIDSITFDVFVWFGWANSSLNPIIYAFNADFQKAFSTLLGCYRLCPTTNNAIETVSINNNGAVVFSSHHEPRGSISKDCNLVYLIPHAVGSSEDLKKEEAGGIAKPLEKLSPALSVILDYDTDVSLEKIQPVTHSGQHST
B1: no binding [2].
